Measured values published in PubChem BioAssay (NCI).
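Each compound was tested at five concentrations against cells in 96-well plates for 48 hours. The concentration for 50% growth inhibition is given as GI50. The concentration for full growth arrest is given as TGI.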

How the values were obtained:
Assay in all cases: NCI anticancer screen, dose series, 48 h
KM12 colon = test system: KM12 colon
M14 melanoma = test system: M14 melanoma
NCI-H226 lung = test system: NCI-H226 lung
OVCAR-8 ovarian = test system: OVCAR-8 ovarian
SN12C renal = test system: SN12C renal
U251 CNS = test system: U251 CNS
SF-539 CNS = test system: SF-539 CNS
K-562 leukemia = test system: K-562 leukemia
DU-145 prostate = test system: DU-145 prostate
NCI/ADR-RES ovarian = test system: NCI/ADR-RES ovarian

Row | Compound | TGI (KM12 colon) | TGI (M14 melanoma) | TGI (NCI-H226 lung) | TGI (OVCAR-8 ovarian) | TGI (SN12C renal) | TGI (U251 CNS) | GI50 (M14 melanoma) | GI50 (OVCAR-8 ovarian) | GI50 (SF-539 CNS) | TGI (SF-539 CNS) | GI50 (SN12C renal) | GI50 (U251 CNS) | TGI (K-562 leukemia) | GI50 (DU-145 prostate) | TGI (DU-145 prostate) | GI50 (KM12 colon) | GI50 (NCI-H226 lung) | GI50 (NCI/ADR-RES ovarian) | TGI (NCI/ADR-RES ovarian) | GI50 (K-562 leukemia)
1 | NC1=NC(=O)C(CC(=O)Nc2ccc([N+](=O)[O-])cc2[N+](=O)[O-])S1 (stereo unspecified) | > 100 µM | > 100 µM | > 100 µM | > 100 µM | > 100 µM | > 100 µM | – | – | – | – | – | – | – | – | – | – | – | – | – | –
2 | c1cc[c]([Sn]([S]c2cccc3cccnc23)([c]2ccccc2)[c]2ccccc2)cc1 | – | 0.0624 µM | – | 0.255 µM | 0.161 µM | 0.11 µM | 0.0222 µM | 0.0387 µM | 0.0725 µM | 0.393 µM | 0.0326 µM | 0.0347 µM | – | – | – | – | – | – | – | –
3 | CC1(C)CCc2cc3c(cc2O1)OCCC3=O | > 100 µM | > 100 µM | > 100 µM | > 100 µM | > 100 µM | > 100 µM | – | – | – | > 100 µM | – | – | > 100 µM | – | – | – | – | – | – | –
4 | c1ccc2c(c1)N=C(c1cccc3ccccc13)CC(c1cccc3ccccc13)S2 (stereo unspecified) | 9.6 µM | 26.2 µM | 24.6 µM | 16.6 µM | 15.9 µM | 6.08 µM | – | – | – | 14.5 µM | – | – | 6.32 µM | – | – | – | – | – | – | –
5 | CCOC(=O)Cc1nc(/C(C#N)=C/c2ccco2)[nH]c(=O)c1C#N | > 100 µM | > 100 µM | > 100 µM | > 100 µM | > 100 µM | > 100 µM | – | – | – | > 100 µM | – | – | > 100 µM | – | – | – | – | – | – | –
6 | O=C(Nc1cc(-c2ccccc2)[nH]n1)c1ccc(Cl)cc1 | > 100 µM | > 100 µM | > 100 µM | > 100 µM | > 100 µM | > 100 µM | 8.66 µM | 24.2 µM | 17.9 µM | > 100 µM | > 100 µM | 9.42 µM | – | 6.96 µM | > 100 µM | 3.28 µM | 56.7 µM | > 100 µM | > 100 µM | –
7 | C=C(C)[C@@H]1CC[C@@]2(C(=O)O)CC[C@]3(C)C(CCC4[C@@]5(C)CCC(OS(=O)(=O)c6ccccc6)C(C)(C)C5CC[C@]43C)C12 (stereo partly specified) | 15 µM | 25.1 µM | 28.3 µM | 88.7 µM | 30.6 µM | 15.7 µM | 11.2 µM | 5.8 µM | 9.93 µM | 22.4 µM | 4.88 µM | 3.62 µM | – | 6.5 µM | 20.8 µM | 3.37 µM | 7.07 µM | 3.52 µM | 18 µM | –
8 | Nc1ccc(SC23CC4CC(CC(C4)C2)C3)cc1 | > 100 µM | > 100 µM | – | > 100 µM | > 100 µM | > 100 µM | – | – | – | > 100 µM | – | – | > 100 µM | – | > 100 µM | – | – | – | > 100 µM | –
9 | CC(=O)c1c(C)n([O-])c2cc(C)c(C)cc2[n+]1=O | > 100 µM | > 100 µM | > 100 µM | > 100 µM | > 100 µM | > 100 µM | – | – | – | > 100 µM | – | – | > 100 µM | – | – | – | – | – | – | –
10 | O=C1N[C@@H](O)[C@@H]2ON=C(c3ccccc3)[C@H]12 | > 100 µM | > 100 µM | > 100 µM | > 100 µM | > 100 µM | > 100 µM | – | – | – | > 100 µM | – | – | > 100 µM | – | – | – | – | – | – | –
11 | CN(C)c1nc(-c2cccs2)n2nc(-c3ccc(Cl)cc3)cc2n1 | > 100 µM | – | > 100 µM | > 100 µM | > 100 µM | – | – | 3.59 µM | 25.5 µM | > 100 µM | > 100 µM | – | > 100 µM | > 100 µM | > 100 µM | > 100 µM | 2.73 µM | – | – | > 100 µM
12 | COc1cc(/C=C\c2ccc(O)cc2)cc(OC)c1OC | > 100 µM | > 100 µM | > 100 µM | > 100 µM | > 53.6 µM | > 23.6 µM | – | – | – | > 100 µM | – | – | > 100 µM | – | – | – | – | – | – | –
13 | Clc1ccc(CNc2nc3ccccc3nc2-c2cccs2)c(Cl)c1 | – | – | > 100 µM | > 100 µM | > 100 µM | > 100 µM | – | – | – | > 100 µM | – | – | > 100 µM | – | – | – | – | – | – | –
14 | CC(=O)OCCOCBr | > 100 µM | > 100 µM | > 100 µM | > 100 µM | > 100 µM | > 100 µM | – | – | – | > 100 µM | – | – | > 100 µM | – | – | – | – | – | – | –
15 | CC1=Nc2c(ccc3c2C(=O)c2ccccc2C3=O)NC(c2ccncc2)C1 (stereo unspecified) | > 100 µM | > 100 µM | > 100 µM | > 100 µM | > 100 µM | > 100 µM | > 100 µM | > 100 µM | > 100 µM | > 100 µM | – | > 100 µM | > 100 µM | – | – | – | > 100 µM | – | – | –
16 | CCCCCC(C(O)C#N)C(O)(C(F)(F)F)C(F)(F)F (stereo unspecified) | > 10 µM | > 10 µM | – | > 10 µM | > 10 µM | > 10 µM | – | – | – | > 10 µM | – | – | > 10 µM | – | > 10 µM | – | – | – | > 10 µM | –
17 | CC(O)CN1C(=O)NC(Cc2ccccc2)C1=O (stereo unspecified) | > 100 µM | > 100 µM | > 100 µM | > 100 µM | > 100 µM | > 100 µM | – | – | – | > 100 µM | – | – | – | – | – | – | – | – | – | –
18 | CN(C)C(=S)/N=c1\ss/c(=N\S(=O)(=O)c2ccccc2)n1-c1ccccc1 | > 100 µM | > 100 µM | > 100 µM | > 100 µM | > 100 µM | > 100 µM | – | – | – | > 100 µM | – | – | > 100 µM | – | – | – | – | – | – | –
19 | CCOC(=O)[C@@H](C)C[C@H](Cc1ccccc1)NC(=O)c1csc([C@@H](C[C@H](C(C)C)N(C)C(=O)[C@@H](NC(=O)[C@H]2CCCCN2C)C(C)(C)C)OC(C)=O)n1 | 0.215 µM | 0.0294 µM | 0.104 µM | > 16.7 µM | > 16.7 µM | > 16.7 µM | < 0.00167 µM | < 0.00167 µM | < 0.00167 µM | 0.00437 µM | 0.00307 µM | < 0.00167 µM | > 16.7 µM | – | – | < 0.00167 µM | < 0.00167 µM | 0.00542 µM | – | < 0.00167 µM
20 | Clc1cc(Cl)c2c(Cl)cc(Cl)c3c2c1N=S=N3 | > 100 µM | > 100 µM | > 100 µM | > 100 µM | – | > 100 µM | – | – | – | > 100 µM | – | – | > 100 µM | – | – | – | – | – | – | –
21 | CC(C)(C)C1(O)Cc2ccccc2C(=O)O1 (stereo unspecified) | > 100 µM | > 100 µM | > 100 µM | > 100 µM | > 100 µM | > 100 µM | – | – | – | > 100 µM | – | – | > 100 µM | – | – | – | – | – | – | –
